# Patent US20160331783A1, “BISAMIDE COMPOUNDS AS ALLOSTERIC EFFECTORS FOR REDUCING THE OXYGEN-BINDING AFFINITY OF HEMOGLOBIN” (THE GENERAL HOSPITAL CORPORATION, priority 2014, published 2016)
# Several values for one entry are separate records, joined by “and”; a condition that tells them apart may be missing. Identical values can stand only once.
# Columns and labels:
# [1] = target: T1, purified human hemoglobin (Homo sapiens, UniProt P68871); assay: Oxygen dissociation curve (ODC) of purified hemoglobin, Hemox analyzer, P50; type: biochemical
# T1 construct: For experiments with purified hemoglobin, hemoglobin (20 μM as tetramer) was dissolved in DPBS
# Experimental: The ODC of hemoglobin was measured with a Hemox analyzer (TCS Scientific Corporation) at 37° C. For experiments with purified hemoglobin, hemoglobin (20 μM as tetramer) was dissolved in DPBS and antifoam (0.2 vol %, Catalog No. AFA-25, TCS Scientific Corporation) was added to prevent foaming of the sample. Compounds were prepared in DMSO stock solutions then added to hemoglobin. The final concentration of DMSO was adjusted to 5 vol %. For experiments with RBCs, blood was drawn from volunteers into EDTA tubes. The blood was centrifuged for 15 min at 3,000 rpm at 4° C. The supernatant was discarded, and RBCs were washed three times with DPBS, pH 7.4 by dilution to 50% hematocrit. The washed RBCs were then diluted with Hemox solution (mixture of N-[Tris(hydroxymethyl)methyl]-2-aminoethanesulfonic acid (TES, 30 mM), sodium chloride (135 mM), and potassium chloride (5 mM) in water (pH 7.4), TCS Scientific Corporation), and mixed with the test compound stock solutions. When known allosteric effectors NEM (400 μM), 5HMF (2 mM) or formamidine disulfide (400 μM) were mixed with RBCs (20 μM as hemoglobin tetramer) for 1 h at 37° C., P50 was reduced to 8 Torr, 9 Torr, and 9 Torr respectively, which correlated with previous reports (see Garel et al., European Journal of Biochemistry, 1982, 123, 513-519). Data was analyzed by two-tailed, unpaired Student's t test using Microsoft Excel 2007.
# A saturating effect on P50 was first determined by adding an increasing concentration of 2,3-DPG and IHP. No increase of P50 of hemoglobin was observed after an addition of a 30-fold molar excess of 2,3-DPG or IHP to hemoglobin. Hemoglobin (20 μM as tetramer) was pre-incubated with either 2,3-DPG (600 μM) or IHP (600 μM) followed by addition of Compound 1 (0, 50, 100, 150 and 200 μM) to the hemoglobin.
# RBCs = assay: Hemolysis of RBCs / blood on incubation with compound; type: cell-based, human; settings: compound 20 μM in DPBS with 5% DMSO
# [2] = target: deoxygenated hemoglobin (deoxyHb) (Homo sapiens, UniProt P68871); assay: X-ray crystallography of deoxyHb complexed with Compound 1; type: binding; settings: PDB 4L7Y, 1.80 Å
# Experimental: To obtain unliganded hemoglobin structure in complex with 1, freshly prepared solution of 1 in DMSO was incubated with deoxygenated hemoglobin (deoxyHb) (30-50 mg/mL) for 1 h at a hemoglobin tetramer-1 molar ratio of 1:5, followed by crystallization with a low-salt precipitant (0.2 M sodium acetate trihydrate, 0.1 M sodium cacodylate trihydrate, pH 6.6 and 30% PEG 8000). The crystals were washed in a cryo-protectant solution containing mother liquor and glycerol (3:1 ratio) prior to data collection. The complex crystallized in the orthorhombic space group P21212 with typical cell dimensions a=96 Å, b=98 Å and c=65 Å with one functional tetramer per asymmetric unit.
# Diffraction data of all crystals were collected at 100 K with a Rigaku IV ++ image plate detector using a CuKα X-rays (k=1.54 Å) from a MicroMax-007 source fitted with Varimax Confocal optics (Rigaku, The Woodlands, Tex.). The datasets were processed with the d*trek software (Rigaku) and the CCP4 suite of programs.
# Initial phase for the deoxyHb-1 complex structure was obtained by a molecular replacement method with the program CNS, using human deoxyHb […] tetramer structure (PDB code 2DN2) as a search model. Subsequent structure refinements were performed with the CNS program. Model building and correction were carried out using the graphic program COOT. […]
structure (smiles),measurement,setting,value
"Cc1cc(C)cc(C(=O)N(C)[C@H](Cc2ccc(-c3ccccc3)cc2)C(=O)N[C@@H](Cc2c[nH]c3ccccc23)C(=O)O)c1 [Compound 1, (S)-2-((R)-3-([1,1′-biphenyl]-4-yl)-2-(N,3,5-trimethylbenzamido)propanamido)-3-(1H-indol-3-yl)propanoic acid]","Increase of P50 of hemoglobin, dose dependence","[1]; FIG. 3, FIG. 6-7",concentration-dependent
same,P50 of hemoglobin,"[1]; hemoglobin 20 μM tetramer, compound 200 μM, DPBS pH 7.4, 5 vol % DMSO, 37° C., hemoglobin alone 17 Torr",24 Torr and 24±0.4 Torr
same,"P50 of hemoglobin pre-saturated with 2,3-DPG plus Compound 1","[1]; hemoglobin 20 μM, 2,3-DPG 600 μM, Compound 1 200 μM",29±0.5 Torr
same,"Synergistic reduction of oxygen binding affinity in combination with 2,3-DPG","[1]; hemoglobin 20 μM, 2,3-DPG 600 μM, Compound 1 up to 200 μM",synergistic reduction
same,Synergistic reduction of oxygen binding affinity in combination with IHP,"[1]; hemoglobin 20 μM, IHP 600 μM, Compound 1 up to 200 μM",did not induce a synergistic reduction
same,P50 with purified hemoglobin,"[1]; hemoglobin 20 μM, tested compound 120 μM, purified hemoglobin alone 17 Torr",24 Torr
same,Hemolysis of RBCs,RBCs,hemolysis
same,Binding site in deoxyHb crystal structure,[2],non-covalently binds at the β-cleft on the dyad axis
